Laboratory results published in BindingDB's records for patent US10561657 (Centaurus Biophrama, 2020).
pIC50: −log10 of the molar value.

Molecular target: Tyrosine-protein kinase JAK2 (Homo sapiens, UniProt O60674)
Test: Enzymatic Activity Assay
Method: A testing platform for kinase activity of JAK2 (wild type and V617F mutant type) was established based on Homogeneous Time-Resolved Fluorescence (HTRF) assay, and the activities of the compounds were tested using the platform. The compounds were subjected to three-fold gradient dilutions with 100% DMSO with a starting concentration of 1 mM (11 dilutions in total). 4 μL of each dilution was added to 96 μL of reaction buffer (50 mM HEPES, pH 7.4, 10 mM MgCl2, 1 mM EGTA, 0.01% Tween-20, 0.005% BAS, 2 mM DTT) and mixed homogeneously. […] The mixture was mixed homogeneously by centrifugation. […] The plate was incubated in the incubator for 1 hr, and then the fluorescence values were read on Envision (available from PerkinElmer). […] The enzymatic activity was representd by a ratio of the two readout at the two emission wavelengths.

Chain of Tyrosine-protein kinase JAK2 (O60674 whole entry): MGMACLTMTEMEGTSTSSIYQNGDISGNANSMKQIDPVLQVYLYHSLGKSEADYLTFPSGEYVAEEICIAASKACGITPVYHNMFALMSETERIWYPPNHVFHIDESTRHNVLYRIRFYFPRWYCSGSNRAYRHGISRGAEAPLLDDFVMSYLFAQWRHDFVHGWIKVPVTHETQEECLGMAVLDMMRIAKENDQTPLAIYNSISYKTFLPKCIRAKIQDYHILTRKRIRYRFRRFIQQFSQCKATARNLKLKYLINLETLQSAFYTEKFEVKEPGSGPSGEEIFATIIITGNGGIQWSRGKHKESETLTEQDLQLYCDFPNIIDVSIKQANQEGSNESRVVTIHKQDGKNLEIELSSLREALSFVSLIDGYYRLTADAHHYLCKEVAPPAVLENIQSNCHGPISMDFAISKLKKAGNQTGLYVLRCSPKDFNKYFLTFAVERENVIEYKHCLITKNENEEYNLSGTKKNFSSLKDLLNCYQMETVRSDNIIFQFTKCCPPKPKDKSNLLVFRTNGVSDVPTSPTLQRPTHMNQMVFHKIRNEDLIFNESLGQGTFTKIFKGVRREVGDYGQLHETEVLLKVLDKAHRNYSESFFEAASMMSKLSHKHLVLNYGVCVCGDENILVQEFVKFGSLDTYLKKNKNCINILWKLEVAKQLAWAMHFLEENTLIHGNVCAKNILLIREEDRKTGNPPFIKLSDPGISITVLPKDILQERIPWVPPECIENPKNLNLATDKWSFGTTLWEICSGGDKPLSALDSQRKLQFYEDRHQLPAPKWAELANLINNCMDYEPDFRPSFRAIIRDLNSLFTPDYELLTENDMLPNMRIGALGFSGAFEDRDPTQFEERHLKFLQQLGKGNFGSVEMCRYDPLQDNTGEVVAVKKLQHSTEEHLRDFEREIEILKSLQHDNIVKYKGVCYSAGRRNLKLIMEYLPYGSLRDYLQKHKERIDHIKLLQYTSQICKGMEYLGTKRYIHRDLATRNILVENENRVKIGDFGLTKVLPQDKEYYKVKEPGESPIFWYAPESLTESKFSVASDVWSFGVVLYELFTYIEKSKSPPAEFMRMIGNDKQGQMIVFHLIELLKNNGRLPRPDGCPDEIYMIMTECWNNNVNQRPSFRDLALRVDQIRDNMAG

NC(=O)CC(C1CCCC1)n1cc(-c2ncnc3[nH]ccc23)c(N)n1 (configuration not stated) [US10561657, Example 2]
pIC50: > 7.00

CS(=O)(=O)Nc1nn(C(CC#N)C2CCCC2)cc1-c1ncnc2[nH]ccc12 (configuration not stated) [US10561657, Example 10]
pIC50: > 7.70
